Measured values from patent US12576051B2, “Methods and composition for treating respiratory obstructive diseases” (The Regents of the University of California, priority 2019, dated 2026).

Legend:
[1] = tested on: Muc5ac mucin from porcine airway mucus; assay: Mucolytic effect on Muc5ac mucin from porcine airway mucus (western blot, densitometry); type: biochemical; settings: 2 mM, 30 mins at 37° C.; compound preincubated in HCO3-Ringer, HCO3-Ringer/acetic acid or acetate buffer pH 4.5
Description: (§1) (Upper panel) Identification of Muc5ac mucin (black arrow) by western blot, from airway mucus sample collected in HCO3-Ringer and treated with or without 2 mM of compound 646 for 30 mins at 37° C. Lane CTRL, untreated sample as control. Lane Bic, sample treated with compound preincubated in HCO3-Ringer; lane Bic/Ac, sample treated with compound preincubated with 1:1 HCO3-Ringer/Acetic acid 0.1N; lane Ac, sample treated with compound preincubated in acetate buffer 1M, pH 4.5. Lower panel, densitometric analysis of the protein bands identified with the Muc5ac mucin antibody. Densitometric signal of the sample control (CTRL) was normalized as 100% (% arbitrary units).
as §1, with “647” for “646”, “4.5, as described under Methods.” for “4.5.”, “units). Control is pH 8, Bic 7.4, Bic/AC 6.9 AND AC 6.2” for “units).”
as §1, with “655” for “646”
as §1, with “compounds 656” for “compound 646”

secreted Muc5ac mucin = assay: Mucolytic activity on secreted Muc5ac mucin of open porcine trachea sections (western blot); settings: 2 mM, HCO3-Ringer with PGE2 (1 uM), 10 minutes at 37° C.; FIG. 18
Description: FIG. 18 provides the mucolytic activity of compounds on secreted Muc5ac mucin. Epithelial luminal surface of open porcine trachea sections (˜2 cm^2) were covered with HCO3-Ringer solution ([…]) containing PGE2 (1 uM), and alcian blue (0.02%), with or without compounds at a 2 mM final concentration, and incubated for 10 minutes at 37° C. Equal volumes of each collected sample were separated on vertical electrophoresis, and then transfer to an immobilon-P membrane for western blot analysis. […] Densitometric signal of the untreated sample, as control, was normalized to 100% (% arbitrary units).
Epithelial luminal surface of open porcine trachea sections (˜2 cm^2) were covered with […] of HCO3-Ringer solution containing PGE2 (1 uM), in the presence or absence of compounds at a 2 mM final concentration, and incubated for 5 minutes at 37° C. Afterwards, […] of sterile 7% NaCl inhaled solution was added and incubated for another 5 mins at 37° C. Equal volumes of each collected sample were separated on vertical electrophoresis, and then transferred to an immobilon-P membrane for western blot analysis. […] Densitometric signal of the non-treated sample, as control, was normalized to 100% (% arbitrary units).

“2-aminoethane-1-d-1-thiol hydrochloride [Compound 646]” was tested, and the “influence of acidic and basic conditions on mucolytic activity on porcine Muc5ac mucin” value [1] was “enhanced under acidic conditions” and the “native Muc5ac levels on epithelial luminal surfaces (immunoblot)” value (secreted Muc5ac mucin) was “decreased native Muc5ac levels”.
